This is an account of results in patent US9067963B2, “N-alkyl 2-(disubstituted)alkynyladenosine-5-uronamides as A2A agonists” (Lewis and Clark Pharmaceuticals, Inc., priority 2012, dated 2015).

Some results are limits rather than exact numbers.

In general, Ki refers to a measure of affinity in units of concentration, obtained from inhibition or displacement.

A2A adenosine receptors, sequence (P29274 whole entry): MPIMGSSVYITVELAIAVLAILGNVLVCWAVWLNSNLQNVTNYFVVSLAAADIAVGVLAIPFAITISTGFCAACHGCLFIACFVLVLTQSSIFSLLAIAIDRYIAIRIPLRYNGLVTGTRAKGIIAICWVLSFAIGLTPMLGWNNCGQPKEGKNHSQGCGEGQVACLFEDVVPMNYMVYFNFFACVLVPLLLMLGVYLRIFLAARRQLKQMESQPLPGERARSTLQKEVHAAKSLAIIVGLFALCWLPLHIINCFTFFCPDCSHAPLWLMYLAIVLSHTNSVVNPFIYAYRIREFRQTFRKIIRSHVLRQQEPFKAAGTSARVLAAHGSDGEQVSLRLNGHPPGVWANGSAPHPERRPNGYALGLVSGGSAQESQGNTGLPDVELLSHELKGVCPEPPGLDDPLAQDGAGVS

For this assay, the target named is A2A adenosine receptors (Homo sapiens, UniProt P29274). The assay is described as follows: A2A Ki binding (methodology of Murphree et al., Mol Pharmacol 2002, 61, 455-62). An excerpt:
The Ki values were obtained using the methodology described by Murphree et al. in Mol Pharmacol 2002, 61, 455-62.
`CNC(=O)[C@H]1O[C@@H](n2cnc3c(N)nc(C#CCN(CCOC)C(=O)c4ccc(F)nc4)nc32)C(O)[C@@H]1O` (stereo partly drawn) [Example 11, N-Methyl 2-{3-[6-fluoro-N-(2-methoxyethyl)nicotinamido]propyn-1-yl}adenosine-5′-uronamide]: the Ki is under 1 nM.
For the compound `CNC(=O)[C@H]1O[C@@H](n2cnc3c(N)nc(C#CCN(C)C(=O)c4ccc(F)nc4)nc32)C(O)[C@@H]1O` (stereo partly drawn) [Example 6, N-Methyl 2-{3-[N-methyl-1-(6-fluoropyridin-3-yl)formamido]prop-1-yn-1-yl}adenosine-5′-uronamide], the Ki is under 1 nM.
On to `CNC(=O)[C@H]1O[C@@H](n2cnc3c(N)nc(C#CCN(C)C(=O)c4ccc(C(F)(F)F)nc4)nc32)C(O)[C@@H]1O` (stereo partly drawn) [Example 1, N-Methyl 2-(3-{N-methyl-1-[6-(trifluoromethyl)pyridin-3-yl]formamido}prop-1-yn-1-yl)adenosine-5′-uronamide], for which the Ki is under 1 nM.
The same measure for `CNC(=O)[C@H]1O[C@@H](n2cnc3c(N)nc(C#CCN(CCOC)C(=O)c4ccccc4)nc32)C(O)[C@@H]1O` (stereo partly drawn) [Example 14, N-Methyl 2-{3-[N-(2-methoxyethyl)benzamido]propyn-1-yl}adenosine-5′-uronamide]: under 1 nM; for `CNC(=O)[C@H]1O[C@@H](n2cnc3c(N)nc(C#CCN(C(=O)c4ccc(OC)c(F)c4)C4CCC4)nc32)C(O)[C@@H]1O` (stereo partly drawn) [Example 21]: under 1 nM; for `CN(CC#Cc1nc(N)c2ncn([C@@H]3O[C@H](C(=O)NC4CC4)[C@@H](O)C3O)c2n1)C(=O)c1ccc(F)nc1` (stereo partly drawn) [Example 7, N-Cyclopropyl 2-{3-[N-methyl-1-(6-fluoropyridin-3-yl)formamido]prop-1-yn-1-yl}adenosine-5′-uronamide]: 1 to 50 nM.
The same measure for `Nc1nc(C#CCN(C(=O)c2ccccc2)C2CC2)nc2c1ncn2[C@@H]1O[C@H](C(=O)NC2CC2)[C@@H](O)C1O` (stereo partly drawn) [Example 25]: under 1 nM; for `CNC(=O)[C@H]1O[C@@H](n2cnc3c(N)nc(C#CCN(C)C(=O)c4ccc(OC)c(F)c4)nc32)C(O)[C@@H]1O` (stereo partly drawn) [Example 29]: under 1 nM; for `CNC(=O)[C@H]1O[C@@H](n2cnc3c(N)nc(C#CCN(C)C(=O)c4ccccc4)nc32)C(O)[C@@H]1O` (stereo partly drawn) [Example 13, N-Methyl 2-{3-[N-methylbenzamido]propyn-1-yl}adenosine-5′-uronamide]: under 1 nM.
`CNC(=O)[C@H]1O[C@@H](n2cnc3c(N)nc(C#CCN(C(=O)c4ccc(F)cc4)C4CCC4)nc32)C(O)[C@@H]1O` (stereo partly drawn) [Example 19] had a Ki of under 1 nM.
The same measure for `CN(CC#Cc1nc(N)c2ncn([C@@H]3O[C@H](C(=O)NC4CC4)[C@@H](O)C3O)c2n1)C(=O)c1ccc(C(F)(F)F)nc1` (stereo partly drawn) [Example 2, N-Cyclopropyl 2-(3-{N-methyl-1-[6-(trifluoromethyl)pyridin-3-yl]formamido}prop-1-yn-1-yl)adenosine-5′-uronamide]: under 1 nM; for `CCNC(=O)[C@H]1O[C@@H](n2cnc3c(N)nc(C#CCN(C)C(=O)c4ccc(C(F)(F)F)nc4)nc32)C(O)[C@@H]1O` (stereo partly drawn) [Example 28]: under 1 nM; for `Nc1nc(C#CCNC(=O)c2ccccc2)nc2c1ncn2[C@@H]1O[C@H](C(=O)NC2CC2)[C@@H](O)C1O` (stereo partly drawn) [Example 5, N-Cyclopropyl 2-{3-[benzamido]propyn-1-yl}adenosine-5′-uronamide]: 1 to 50 nM.
For the compound `CNC(=O)[C@H]1O[C@@H](n2cnc3c(N)nc(C#CCN(C(=O)c4ccc(Cl)cc4)C4CCC4)nc32)C(O)[C@@H]1O` (stereo partly drawn) [Example 30], the Ki is under 1 nM.
The same measure for `COc1ccc(CN(CC#Cc2nc(N)c3ncn([C@@H]4O[C@H](C(=O)NC5CC5)[C@@H](O)C4O)c3n2)C(=O)C2CC2)cc1` (stereo partly drawn) [Example 18]: under 1 nM; for `Nc1nc(C#CCN(CC2CC2)C(=O)c2ccccc2)nc2c1ncn2[C@@H]1O[C@H](C(=O)NC2CC2)[C@@H](O)C1O` (stereo partly drawn) [Example 3, N-Cyclopropyl 2-{3-[N-(cyclopropylmethyl)benzamido]propyn-1-yl}adenosine-5′-uronamide]: under 1 nM.
The compound `CNC(=O)[C@H]1O[C@@H](n2cnc3c(N)nc(C#CCN(C(=O)c4ccc(Cl)nc4)C4CC4)nc32)C(O)[C@@H]1O` (stereo partly drawn) [Example 22] yielded a Ki of under 1 nM.
The same measure for `CNC(=O)[C@H]1O[C@@H](n2cnc3c(N)nc(C#CCN(C(=O)c4ccccc4)C4CCC4)nc32)C(O)[C@@H]1O` (stereo partly drawn) [Example 8, N-Methyl 2-{3-[N-(cyclobutyl)benzamido]propyn-1-yl}adenosine-5′-uronamide]: under 1 nM.
The same measure for `CNC(=O)[C@H]1O[C@@H](n2cnc3c(N)nc(C#CCN(C(=O)c4cccc(F)c4)C4CCC4)nc32)C(O)[C@@H]1O` (stereo partly drawn) [Example 20]: under 1 nM; for `CNC(=O)[C@H]1O[C@@H](n2cnc3c(N)nc(C#CCN(Cc4ccc(OC)cc4)C(=O)C4CC4)nc32)C(O)[C@@H]1O` (stereo partly drawn) [Example 17]: 1 to 50 nM; for `CNC(=O)[C@H]1O[C@@H](n2cnc3c(N)nc(C#CCN(C(=O)c4ccccc4)C4CC4)nc32)C(O)[C@@H]1O` (stereo partly drawn) [Example 23]: over 50 nM.
For the compound `CCNC(=O)[C@H]1O[C@@H](n2cnc3c(N)nc(C#CCN(C(=O)Cc4ccccc4)C4CC4)nc32)C(O)[C@@H]1O` (stereo partly drawn) [Example 27], the Ki lay in the range of 1 to 50 nM.
Compound `CNC(=O)[C@H]1O[C@@H](n2cnc3c(N)nc(C#CCN(C)C(=O)c4cccnc4)nc32)C(O)[C@@H]1O` (stereo partly drawn) [Example 9, N-Methyl 2-{3-[N-methylnicotinamido]propyn-1-yl}adenosine-5′-uronamide] registered a Ki of 1 to 50 nM.
The same measure for `CCNC(=O)[C@H]1O[C@@H](n2cnc3c(N)nc(C#CCN(Cc4ccc(OC)cc4)C(=O)C4CC4)nc32)C(O)[C@@H]1O` (stereo partly drawn) [Example 36]: 1 to 50 nM.
In turn, `CCNC(=O)[C@H]1O[C@@H](n2cnc3c(N)nc(C#CCN(C(=O)c4ccc(Cl)nc4)C4CC4)nc32)C(O)[C@@H]1O` (stereo partly drawn) [Example 26] had a Ki of under 1 nM.
The same measure for `Nc1nc(C#CCN(C(=O)c2ccc(Cl)nc2)C2CC2)nc2c1ncn2[C@@H]1O[C@H](C(=O)NC2CC2)[C@@H](O)C1O` (stereo partly drawn) [Example 24]: under 1 nM; for `Nc1nc(C#CCN(C(=O)Cc2ccccc2)C2CC2)nc2c1ncn2[C@@H]1O[C@H](C(=O)NC2CC2)[C@@H](O)C1O` (stereo partly drawn) [Example 16]: 1 to 50 nM.
For `CNC(=O)[C@H]1O[C@@H](n2cnc3c(N)nc(C#CCN(C)C(=O)c4ccc(C#N)cc4)nc32)C(O)[C@@H]1O` (stereo partly drawn) [Example 33], the Ki was under 1 nM.
Consider `CNC(=O)[C@H]1O[C@@H](n2cnc3c(N)nc(C#CCN(CC(C)C)C(=O)c4ccccc4)nc32)C(O)[C@@H]1O` (stereo partly drawn) [Example 32], for which the Ki was under 1 nM.
The compound `CCNC(=O)[C@H]1O[C@@H](n2cnc3c(N)nc(C#CCN(C)C(=O)c4ccc(F)nc4)nc32)C(O)[C@@H]1O` (stereo partly drawn) [Example 35] returned a Ki of under 1 nM.
Turning to `CNC(=O)[C@H]1O[C@@H](n2cnc3c(N)nc(C#CCN(CCOC)C(=O)c4cccs4)nc32)C(O)[C@@H]1O` (stereo partly drawn) [Example 12, N-Methyl 2-{3-[N-(2-methoxyethyl)thiophene-2-carboxamido]propyn-1-yl}adenosine-5′-uronamide], the Ki is under 1 nM.
The compound `CNC(=O)[C@H]1O[C@@H](n2cnc3c(N)nc(C#CCN(C)C(=O)c4ccc(F)cc4)nc32)C(O)[C@@H]1O` (stereo partly drawn) [Example 15, N-Methyl 2-{3-[4-fluoro-N-methylbenzamido]propyn-1-yl}adenosine-5′-uronamide] displayed a Ki of under 1 nM.
The same measure for `Nc1nc(C#CCN(C(=O)c2ccccc2)C2CCC2)nc2c1ncn2[C@@H]1O[C@H](C(=O)NC2CC2)[C@@H](O)C1O` (stereo partly drawn) [Example 4, N-Cyclopropyl 2-{3-[N-(cyclobutyl)benzamido]propyn-1-yl}adenosine-5′-uronamide]: under 1 nM; for `CNC(=O)[C@H]1O[C@@H](n2cnc3c(N)nc(C#CCN(Cc4cccs4)C(=O)c4ccccc4)nc32)C(O)[C@@H]1O` (stereo partly drawn) [Example 34]: 1 to 50 nM; for `CNC(=O)[C@H]1O[C@@H](n2cnc3c(N)nc(C#CCN(C)C(=O)c4ccncc4)nc32)C(O)[C@@H]1O` (stereo partly drawn) [Example 10, N-Methyl 2-{3-[N-methylisonicotinamido]propyn-1-yl}adenosine-5′-uronamide]: 1 to 50 nM.
In the case of `CNC(=O)[C@H]1O[C@@H](n2cnc3c(N)nc(C#CCN(C(=O)c4ccccc4)C4CCCC4)nc32)C(O)[C@@H]1O` (stereo partly drawn) [Example 31], the Ki is under 1 nM.
